Data set [1] has as its system rat osteoblast-like ROS 17/2.8 cells. The experiment in a line: cAMP accumulation assay (IBMX, 15 minute challenge, ELISA). Format: cell-based. As to conditions: 15 minutes. The method, then: Cultures were treated with the phosphodiesterase inhibitor IBMX and then challenged for 15 minutes with various PTH fragments. CAMP was measured by ELISA.
We tested the relative ability of PTH-Fc constructs to stimulate cAMP accumulation in rat osteoblast-like ROS 17/2.8 cells. Cultures were treated with the phosphodiesterase inhibitor IBMX to promote the accumulation of cAMP. Cultures were then challenged for 15 minutes with either vehicle (PBS), or various PTH constructs.
A general note: Cyclic AMP is a second messenger, typically raised through Gs and lowered through Gi signalling.

For data set [2], the system named is Sprague Dawley (SD) rats. The experiment in a line: Anabolic assay: lumbar (L3) BMD by DEXA, PTH constructs with or without OPG-Fc. It is filed as in vivo. The settings on record: 6-month-old male SD rats, DEXA Day 7; OPG-Fc 1 mg/kg once; PTH-(1-34) 20 nMoles/kg x3; PTH-(1-34)-Fc 60 nMoles/kg once. How it is done: Briefly, 6-month-old male Sprague Dawley (SD) rats were divided into groups of 6. Baseline bone mineral density (BMD) was determined in the third lumbar vertebra (L3) of all rats by dual-energy X-ray absorptiometry (DEXA) (Day 0). Rats were then treated according to the following schedule:
Group 1: Vehicle controls (PBS, injected SC, Days 1, 3, and 5)
Group 2: OPG-Fc, single SC injection (1 mg/kg) on Day 1
Group 3: PTH-(1-34), SC injections on Days 1, 3, and 5, at 20 nMoles PTH/kg/injection. This represents an optimal anabolic PTH regimen.
Group 4: Same as group 3, but with a single OPG-Fc injection on Day 1.
Group 5: Single SC injection of PTH-(1-34)-Fc at 60 nMoles/kg, on Day 1. This represents a molar dose which is equivalent to the total dose of PTH-(1-34) received by group 3, but in a single injection.
Group 6: Same as group 5, but with a single OPG-Fc injection (SC, 1 mg/kg) on Day 1.
DEXA of the lumbar spine was performed again on Day 7 to evaluate changes in BMD. […] The anabolic effect of a single treatment with PTH-(1-34)-Fc plus OPG-Fc was greater than that induced by multiple injections of PTH-(1-34), with or without OPG-Fc co-treatment.
Normal 6 month old male rats were treated with PTH-Fc or PTH or vehicle by a single SC injection. Some rats also received a single SC injection of OPG. BMD was determined 7 days later by DEXA. Data represent means+SD, N=6 rats/group.

Data set [3] deals with mice. As to the kind of experiment: Mouse bioassay: SC injection days 0, 5, 10; clinical chemistry (calcium, AP, TRAP) and tibial pQCT. It is filed as in vivo. The method, then:
Peripheral blood was obtained daily for 3 days following single subcutaneous injections of the indicated compounds.
Peripheral quantitative computed tomography (pQCT) was performed on the proximal tibial metaphysis of mice on day 15, after injections of PTH constructs on day 0, 5 and 10.
We then tested the effects of PTH-(1-34), PTH-(1-34)-Fc, PTH-(1-31)-Fc and PTH-(1-30)-Fc in mice. Four week old male mice were injected on days 0, 5, and 10 with vehicle or with PTH fragments, by SC injection. Peripheral blood was obtained for clinical chemistry at 24, 48, and 72 h. Mice were killed on day 15, vertebrae, tibiae and femurs were harvested for histology and one tibia was collected for bone density measurements (peripheral quantitative computed tomography, pQCT). Clinical chemistry endpoints included total serum calcium, serum alkaline phosphatase (AP, a marker of osteoblast activity), and serum tartrate-resistant acid phosphatase (TRAP, a marker of osteoclast activity). For each animal, the ratio of AP:TRAP was calculated as an index of relative osteoblast activity compared to osteoclast activity. A higher AP:TRAP ratio would indicate a potentially more anabolic agent.

The subject of data set [4] is male BDF1 mice. The experiment in a line: Monotherapy in adult mice: twice-weekly PTH-(1-34)-Fc versus daily PTH-(1-34), tibial BMD by pQCT. Format: in vivo. As to conditions: 3 weeks, PTH-(1-34)-Fc twice weekly, various doses. How it is done:
Daily PTH [PTH-(1-34)] was given at 80 μg/kg/day (20 nmol/kg/day).
Briefly, male BDF1 mice (4 months of age) were treated twice per week by subcutaneous injection with various doses of PTH-(1-34)-Fc or with vehicle (PBS). Other mice were treated daily with SC injections of PTH-(1-34) at a dose of 80 μg/kg/day (20 nmol/kg/day), a treatment regimen which is optimal for increasing bone mass in rodents (M. Gunness-Hey and J. M. Hock, Metab. Bone Dis. & Rel. Res. 5:177-181, 1984). After 3 weeks, mice were sacrificed and tibiae were analyzed for bone mineral density (BMD) via pQCT (FIG. 10).

Data set [5] concerns mice. The experiment in a line: Hypercalcemia assay: murine hypercalcemia model, single SC injection, blood ionized calcium. It is filed as in vivo. As to conditions: single SC injection, equimolar doses, blood ionized calcium. The method, then:
Mice were challenged with vehicle (PBS, —X—), or with PTH-(1-34) (open symbols) or with PTH-(1-34)-Fc (closed symbols). Doses were 156 nmol/kg (circles), 469 nmol/kg (triangles) or 1,560 nmol/kg (squares). Data represent group means, n=6 mice/group.
We tested the potency and duration of effect of PTH-(1-34)-Fc in a murine hypercalcemia model. Briefly, mice were injected once SC with varying doses of PTH-(1-34) or PTH-(1-34)-Fc, and peripheral blood was collected from the retroorbital sinus for determination of blood ionized calcium. The half-life and the potency of PTH-(1-34)-Fc was greater than that of PTH-(1-34), as evidenced by the sustained hypercalcemic response of mice to the former agent (FIG. 4). Hypercalcemia induced by PTH-(1-34) persisted for 6-24 h, while equimolar doses of PTH-(1-34)-Fc caused more sustained hypercalcemia (48-72 h). This duration of response is consistent with greater half-life of the PTH-(1-34)-Fc construct vs. PTH-(1-34).

The test system of data set [6] is mice. As to conditions: non-Fc conjugated peptide, stated as usual behaviour; cited from earlier work.
For data set [7], the target named is T1, PTH-1 receptor (Homo sapiens, UniProt Q03431).
T1 sequence (Q03431 27-593): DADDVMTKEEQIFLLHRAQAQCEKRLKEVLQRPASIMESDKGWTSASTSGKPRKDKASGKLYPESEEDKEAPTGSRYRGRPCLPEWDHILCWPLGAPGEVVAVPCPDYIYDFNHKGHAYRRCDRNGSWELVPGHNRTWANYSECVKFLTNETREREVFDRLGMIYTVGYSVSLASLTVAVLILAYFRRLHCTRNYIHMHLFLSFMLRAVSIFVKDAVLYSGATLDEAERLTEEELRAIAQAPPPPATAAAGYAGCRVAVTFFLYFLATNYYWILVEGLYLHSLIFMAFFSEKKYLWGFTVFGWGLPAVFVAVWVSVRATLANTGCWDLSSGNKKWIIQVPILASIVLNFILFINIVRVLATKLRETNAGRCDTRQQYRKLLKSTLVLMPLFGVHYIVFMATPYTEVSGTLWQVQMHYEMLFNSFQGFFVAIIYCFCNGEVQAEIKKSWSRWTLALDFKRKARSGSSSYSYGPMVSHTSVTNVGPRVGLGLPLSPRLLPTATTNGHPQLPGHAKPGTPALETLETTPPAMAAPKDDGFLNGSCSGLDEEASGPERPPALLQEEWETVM
As to conditions: cited from earlier work.

In data set [8] the target is T2, rat PTH-1 receptor (Rattus norvegicus, UniProt P25961).
T2 sequence (P25961 27-591): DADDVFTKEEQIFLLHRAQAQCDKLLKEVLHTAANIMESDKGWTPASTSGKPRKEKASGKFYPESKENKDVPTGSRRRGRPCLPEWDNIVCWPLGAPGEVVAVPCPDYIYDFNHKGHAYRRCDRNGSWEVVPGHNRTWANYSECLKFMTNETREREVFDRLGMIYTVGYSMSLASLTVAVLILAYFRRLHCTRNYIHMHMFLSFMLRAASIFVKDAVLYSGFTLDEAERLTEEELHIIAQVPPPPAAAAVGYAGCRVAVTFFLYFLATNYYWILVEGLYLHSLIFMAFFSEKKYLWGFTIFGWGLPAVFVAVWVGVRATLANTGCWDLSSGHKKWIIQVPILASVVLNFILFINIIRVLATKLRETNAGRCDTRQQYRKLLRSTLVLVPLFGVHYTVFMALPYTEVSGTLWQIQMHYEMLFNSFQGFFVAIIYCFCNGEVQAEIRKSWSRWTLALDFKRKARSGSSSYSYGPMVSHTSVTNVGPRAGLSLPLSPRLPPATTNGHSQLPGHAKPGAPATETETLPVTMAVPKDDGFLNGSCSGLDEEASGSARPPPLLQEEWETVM
The settings on record: cited from earlier work.

Data set [9] deals with healthy humans. The settings on record: infusion, unlike PTH-(1-34); cited from earlier work.
For data set [10] the following is noted: in vivo, circulating; cited from earlier work.

Consider “human PTH(1-34) [PTH-(1-34), reference compound]”, for which, in data set [1], the “potency in cAMP accumulation relative to PTH-(1-31)-Fc and PTH-(1-30)-Fc” value is “slightly more potent”. Besides, in [2], the “BMD in L3 compared to PBS-treated rats” value is listed as “increased modestly”. Besides, the “calculated AP:TRAP ratio” value in data set [3] (300 nmoles/kg) was “unchanged”. In data set [3] (300 nmoles/kg (given for PTH-(1-34)-Fc), 72 h), the “serum AP (osteoblast marker)” value is recorded as “unchanged”. For the same substance, the serum calcium entry in [3] (300 nmoles/kg SC (equimolar), 24, 48, 72 h) was “not significantly different”. Moreover, in [3] (300 nmoles/kg on day 0, 5, 10, pQCT day 15), the “bone mineral density (proximal tibial metaphysis)” value is “modest (non-significant) anabolic effect”. Also, the “serum TRAP (osteoclast marker)” value in data set [3] (mice, after single SC injection) is reported as “not significantly changed”. Further, in data set [4] (PTH-(1-34) daily 80 μg/kg/day), the “cancellous BMD compared to vehicle” value is “significantly increased” and the “total tibial BMD compared to vehicle” value is listed as “significantly increased”. Further, the “cortical BMD in the tibia” value in data set [4] (PTH-(1-34) daily) is given as “not significantly enhanced”. The duration of hypercalcemia in [5] is 6 to 24 h. For the same substance, the “duration of transient increase in serum calcium normally caused” value in data set [6] is recorded as 12 h.

As to “human PTH(1-30) (SVSEIQLMHNLGKHLNSMERVEWLRKKLQD; listed as Homo sapiens) [hPTH-(1-30)]”, the “reduction of affinity for PTH-1 receptor compared to hPTH-(1-34)” value in data set [7] is 10-100 fold. Further, in [8], the PLC activation result was “weak and incomplete agonist”.

Take human PTH(1-31) [hPTH-(1-31)]: the “reduction of affinity for PTH-1 receptor compared to hPTH-(1-34)” value in [7] is on record as 1-6 fold. Further, the “serum calcium, plasma 1,25(OH)2D3, urinary N-TX levels” value in [9] was “failed to elevate”.

On to Parathyroid hormone [PTH], for which the half-life entry in data set [10] is “less than 1 h”.

Values taken from patent publication US6756480B2, “Modulators of receptors for parathyroid hormone and parathyroid hormone-related protein” (Amgen Inc., priority 2000, dated 2004).
